From US7999069B2, “EphB receptor-binding peptides” (Sanford-Burnham Medical Research Institute, priority 2005, dated 2011)
No end group written: not given here.

Columns and labels:
EphB6 = biological target: T1, EphB6 (Homo sapiens, UniProt O15197); test: Phage clone binding to immobilized EphB6 ectodomain Fc (phage ELISA); settings: phage clone displaying the peptide
T1 construct: Histidine-tagged EphB ectodomain Fc fusion proteins were incubated overnight
T1 sequence (O15197 32-594 limits assumed): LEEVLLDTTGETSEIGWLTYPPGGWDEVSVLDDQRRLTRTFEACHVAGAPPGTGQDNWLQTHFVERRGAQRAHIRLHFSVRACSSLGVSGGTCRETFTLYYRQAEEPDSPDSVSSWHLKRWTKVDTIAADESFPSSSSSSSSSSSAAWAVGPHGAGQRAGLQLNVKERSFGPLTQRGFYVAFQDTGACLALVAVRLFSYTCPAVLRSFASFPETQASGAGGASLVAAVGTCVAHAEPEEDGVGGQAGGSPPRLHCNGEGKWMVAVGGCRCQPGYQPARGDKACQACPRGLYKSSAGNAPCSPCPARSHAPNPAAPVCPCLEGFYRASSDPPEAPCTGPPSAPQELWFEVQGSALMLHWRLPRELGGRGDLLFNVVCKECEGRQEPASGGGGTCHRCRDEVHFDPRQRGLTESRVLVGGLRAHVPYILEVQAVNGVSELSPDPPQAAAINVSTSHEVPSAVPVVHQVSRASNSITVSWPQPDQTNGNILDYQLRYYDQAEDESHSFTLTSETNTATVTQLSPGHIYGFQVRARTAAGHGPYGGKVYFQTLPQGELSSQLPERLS
Experimental: Phage binding to Ni-NTA wells coated with 1 μg/ml Eph receptor Fe fusion proteins was quantified using an anti-phage antibody conjugated to horseradish peroxidase (M13 phage detection kit, Amersham Biosciences) with 2,2-azino-bis(3-ethylbenzothiazoline-6-sulfonic acid) as a substrate. The background that was subtracted from the measurements was determined without EphB4 Fc. […] In round 1 of panning, 2×10^11 plaque forming units (PFUs) of the phage library in 100 μl binding buffer were incubated for 1 hour at room temperature in the EphB receptor-coated wells.

EphB3 = biological target: T2, EphB3 (Homo sapiens, UniProt P54753); test: Phage clone binding to immobilized EphB3 ectodomain Fc (phage ELISA); settings: phage clone displaying the peptide
T2 construct: Histidine-tagged EphB ectodomain Fc fusion proteins were incubated overnight
T2 sequence (P54753 34-559 limits assumed): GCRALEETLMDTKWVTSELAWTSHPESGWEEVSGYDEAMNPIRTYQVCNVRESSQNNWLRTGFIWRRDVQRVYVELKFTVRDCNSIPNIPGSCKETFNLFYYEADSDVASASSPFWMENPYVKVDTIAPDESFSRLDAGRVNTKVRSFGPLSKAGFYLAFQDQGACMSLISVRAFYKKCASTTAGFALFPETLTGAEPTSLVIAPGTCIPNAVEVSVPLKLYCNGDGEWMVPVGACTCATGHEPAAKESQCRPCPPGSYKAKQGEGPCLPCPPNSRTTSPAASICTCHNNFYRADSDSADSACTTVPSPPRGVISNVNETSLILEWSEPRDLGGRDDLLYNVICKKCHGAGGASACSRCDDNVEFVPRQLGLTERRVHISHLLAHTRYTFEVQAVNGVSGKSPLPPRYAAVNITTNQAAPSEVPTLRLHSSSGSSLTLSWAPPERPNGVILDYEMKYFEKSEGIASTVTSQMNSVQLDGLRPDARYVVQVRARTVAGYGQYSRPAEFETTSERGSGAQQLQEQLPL
Experimental: To identify EphB receptor-binding peptides, an M13 phage library (R&D Systems, Minneapolis, Minn.) displaying random 12 amino acid-long peptides was panned on the ectodomains of EphB1, EphB2, or EphB4 fused to human Fc and immobilized on nickel-coated wells through a carboxy-terminal hexahistidine tag (FIG. 1). Phage binding to Ni-NTA wells coated with 1 μg/ml Eph receptor Fe fusion proteins was quantified using an anti-phage antibody conjugated to horseradish peroxidase (M13 phage detection kit, Amersham Biosciences) with 2,2-azino-bis(3-ethylbenzothiazoline-6-sulfonic acid) as a substrate. The background that was subtracted from the measurements was determined without EphB4 Fc. Histidine-tagged EphB ectodomain Fc fusion proteins were incubated overnight at 4° C. in nickel-nitrilotriacetic acid (Ni-NTA)-coated ELISA wells at concentrations of 10 μg/ml in Tris-buffered saline (TBS) (150 mM NaCl, 50 mM Tris-HCl, pH 7.5), except for EphB2 and EphB4 rounds 3.2 and 4, which were with 1 μg/ml. […] Phage recovered after the first round of panning (1*) were not quantified to ensure that rare clones would be recovered.
The binding selectivity of the phage clones for the different mammalian EphB receptors was also determined (Table 1). […]

EWLSPNLAPSVR [compound 1]
EphB Receptor Specificity (% Binding) B6 (EphB6): 0%
EphB Receptor Specificity (% Binding) B3 (EphB3): 1%
